Laboratory results published in ChEMBL document CHEMBL1909294, “Translating clinical findings into knowledge in drug safety evaluation--drug induced liver injury prediction system (DILIps)” (PLoS Comput Biol, 2011).

Tests used:
Hepatotoxicity [1] = test system: Hepatotoxicity;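 as to HepSE cholelithiasis: hepatic side effect score for cholelithiasis, drawn from the DILIps training data for predicting drug-induced liver injury; call rule not given here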;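 as to HepSE elevated liver function tests: hepatic side effect score for raised liver function tests, as recorded in the DILIps training set used for predicting drug-induced liver injury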; as to HepSE hepatic failure: call rule not given here;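 as to HepSE hepatomegaly: hepatic side effect score for hepatomegaly, taken from the training set of the DILIps drug-induced liver injury prediction system; call rule not given here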;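 as to HepSE jaundice: Jaundice-related hepatic side-effect score drawn from the training data of the DILIps (drug-induced liver injury prediction system); call rule not given here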;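 as to HepSE liver function tests abnormal: hepatic side effect score taken from the DILIps (drug-induced liver injury prediction system) training data, here covering abnormal liver function test findings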
Hepatotoxicity [2] = test system: Hepatotoxicity; remark: listed apart in the source;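 as to HepSE cholelithiasis: hepatic side effect score for cholelithiasis, drawn from the DILIps training data for predicting drug-induced liver injury; call rule not given here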;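 as to HepSE elevated liver function tests: hepatic side effect score for raised liver function tests, as recorded in the DILIps training set used for predicting drug-induced liver injury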; as to HepSE hepatic failure: call rule not given here;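 as to HepSE hepatomegaly: hepatic side effect score for hepatomegaly, taken from the training set of the DILIps drug-induced liver injury prediction system; call rule not given here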;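 as to HepSE jaundice: Jaundice-related hepatic side-effect score drawn from the training data of the DILIps (drug-induced liver injury prediction system); call rule not given here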;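 as to HepSE liver function tests abnormal: hepatic side effect score taken from the DILIps (drug-induced liver injury prediction system) training data, here covering abnormal liver function test findings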
Hepatotoxicity [3] = test system: Hepatotoxicity; remark: listed apart in the source;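 as to HepSE cholelithiasis: hepatic side effect score for cholelithiasis, drawn from the DILIps training data for predicting drug-induced liver injury; call rule not given here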;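 as to HepSE elevated liver function tests: hepatic side effect score for raised liver function tests, as recorded in the DILIps training set used for predicting drug-induced liver injury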; as to HepSE hepatic failure: call rule not given here;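 as to HepSE hepatomegaly: hepatic side effect score for hepatomegaly, taken from the training set of the DILIps drug-induced liver injury prediction system; call rule not given here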;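 as to HepSE jaundice: Jaundice-related hepatic side-effect score drawn from the training data of the DILIps (drug-induced liver injury prediction system); call rule not given here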;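 as to HepSE liver function tests abnormal: hepatic side effect score taken from the DILIps (drug-induced liver injury prediction system) training data, here covering abnormal liver function test findings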
Hepatotoxicity [4] = test system: Hepatotoxicity; remark: listed apart in the source;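 as to HepSE cholelithiasis: hepatic side effect score for cholelithiasis, drawn from the DILIps training data for predicting drug-induced liver injury; call rule not given here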;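 as to HepSE elevated liver function tests: hepatic side effect score for raised liver function tests, as recorded in the DILIps training set used for predicting drug-induced liver injury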; as to HepSE hepatic failure: call rule not given here;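 as to HepSE hepatomegaly: hepatic side effect score for hepatomegaly, taken from the training set of the DILIps drug-induced liver injury prediction system; call rule not given here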;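 as to HepSE jaundice: Jaundice-related hepatic side-effect score drawn from the training data of the DILIps (drug-induced liver injury prediction system); call rule not given here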;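 as to HepSE liver function tests abnormal: hepatic side effect score taken from the DILIps (drug-induced liver injury prediction system) training data, here covering abnormal liver function test findings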
Hepatotoxicity [5] = test system: Hepatotoxicity; remark: listed apart in the source; as to HepSE hepatic failure: call rule not given here
Hepatotoxicity [6] = test system: Hepatotoxicity; remark: listed apart in the source
Hepatotoxicity [7] = test system: Hepatotoxicity; remark: listed apart in the source
Hepatotoxicity [8] = test system: Hepatotoxicity; remark: listed apart in the source
Hepatotoxicity [9] = test system: Hepatotoxicity; remark: listed apart in the source
Hepatotoxicity [10] = test system: Hepatotoxicity; remark: listed apart in the source
Hepatotoxicity [11] = test system: Hepatotoxicity; remark: listed apart in the source
Hepatotoxicity [12] = test system: Hepatotoxicity; remark: listed apart in the source
Hepatotoxicity [13] = test system: Hepatotoxicity; remark: listed apart in the source
Hepatotoxicity [14] = test system: Hepatotoxicity; remark: listed apart in the source

| SMILES | HepSE_hepatomegaly (Hepatotoxicity [1]) | HepSE_liver function tests abnormal (Hepatotoxicity [2]) | HepSE_cholelithiasis (Hepatotoxicity [3]) | HepSE_liver fatty (Hepatotoxicity [4]) | HepSE_elevated liver function tests (Hepatotoxicity [5]) | HepSE_jaundice (Hepatotoxicity [6]) | HepSE_hepatic failure (Hepatotoxicity [7]) | HepSE_bilirubinemia (Hepatotoxicity [8]) | HepSE_cirrhosis (Hepatotoxicity [9]) | HepSE_Combined Scores (Hepatotoxicity [10]) | HepSE_hepatitis (Hepatotoxicity [11]) | HepSE_hepatic necrosis (Hepatotoxicity [12]) | HepSE_liver disease (Hepatotoxicity [13]) | HepSE_cholecystitis (Hepatotoxicity [14]) |
| --- | --- | --- | --- | --- | --- | --- | --- | --- | --- | --- | --- | --- | --- | --- |
| Cc1ncc2n1-c1ccc(Cl)cc1C(c1ccccc1F)=NC2 [MIDAZOLAM] | 0 | 0 | 0 | 0 | 0 | 0 | 0 | 0 | 0 | 0 | 0 | 0 | 0 | 0 |
| COc1ccc(OC)c(C(O)CNC(=O)CN)c1 (stereo not drawn) [MIDODRINE] | 0 | 0 | 0 | 0 | 0 | 0 | 0 | 0 | 0 | 0 | 0 | 0 | 0 | 0 |
| CC#C[C@]1(O)CC[C@H]2[C@@H]3CCC4=CC(=O)CCC4=C3[C@@H](c3ccc(N(C)C)cc3)C[C@@]21C [MIFEPRISTONE] | 0 | 0 | 0 | 0 | 0 | 0 | 0 | 0 | 0 | 0 | 0 | 0 | 0 | 0 |
| OCCN1C[C@H](O)[C@@H](O)[C@H](O)[C@H]1CO [MIGLITOL] | 0 | 0 | 0 | 0 | 0 | 0 | 0 | 0 | 0 | 0 | 0 | 0 | 0 | 0 |
| Cc1[nH]c(=O)c(C#N)cc1-c1ccncc1 [MILRINONE] | 0 | 0 | 0 | 0 | 0 | 0 | 0 | 0 | 0 | 0 | 0 | 0 | 0 | 0 |
| CN(C)c1ccc(O)c2c1C[C@H]1C[C@H]3[C@H](N(C)C)C(O)=C(C(N)=O)C(=O)[C@@]3(O)C(O)=C1C2=O [MINOCYCLINE] | 0 | 0 | 0 | 0 | 0 | 1 | 1 | 1 | 0 | 4 | 1 | 0 | 0 | 0 |
| Nc1cc(N2CCCCC2)nc(N)[n+]1[O-] [MINOXIDIL] | 0 | 0 | 0 | 0 | 0 | 0 | 0 | 0 | 0 | 0 | 0 | 0 | 0 | 0 |
